{"source": "patent US11081240B2", "about": "“Methods for treatment of hypertension with an angiotensin II receptor blocker pharmaceutical composition” (AstraZeneca UK Limited, priority 2018, dated 2021)", "origin": "cited, not measured here", "key": {"[1]": {"conditions": "treatment of hypertension; at least 5 double-blind, placebo-controlled, randomized studies"}, "[2]": {"conditions": "co-administration of a potassium supplement with a single oral dose"}, "[3]": {"conditions": "administered with a lithium medication"}}}
{"compound": "CCOc1nc2cccc(C(=O)OCc3oc(=O)oc3C)c2n1Cc1ccc(-c2ccccc2-c2noc(=O)[nH]2)cc1", "note": "[azilsartan medoxomil]", "values": [{"measurement": "efficacy to lower blood pressure", "setting": "[1]", "result": "has been demonstrated"}, {"measurement": "effect of a potassium supplement on the pharmacokinetics of the drug", "setting": "[2]", "result": "no significant effect"}, {"measurement": "serum lithium concentrations / lithium toxicity on co-administration", "setting": "[3]", "result": "increases in the serum lithium concentrations and/or lithium toxicity have been observed"}]}
